Experimental findings from patent US9504756B2, “Self-stabilizing linker conjugates” (priority 2012, dated 2016) are described below.

The nature of this data set: Thiosuccinimide ring hydrolysis of IgG1 conjugates monitored by electrospray mass spectrometry. The conditions noted are these: conjugated to reduced human IgG1; pH 7.4, 22° C. In kind it is physicochemical. The text has this: The hydrolysis reaction rates of maleimido drug linkers following conjugation to antibody cysteines can be determined by mass spectrometry, as the hydrolyzed product has a molecular weight 18 daltons greater than the unhydrolyzed conjugate. Reduction of the interchain disulfides of a human IgG1 creates a single reduced cysteine on the light chain and three reduced cysteines on the heavy chain. The self-stabilizing maleimide drug-linker can then be conjugated to the reduced antibody at pH 7.4 and 22° C. and introduced to a high-resolution electrospray mass spectrometer via a reversed-phase HPLC column which separates the conjugated light and heavy chains. The masses of the conjugated light and heavy chains can thus be measured, and the peak intensities determined by standard mass spectrometry data processing software (e.g., MassLynx). By performing a series of injections over time, the disappearance of the peak corresponding to the mass of the original, unhydrolyzed conjugate and the appearance of the peak corresponding to the mass of the hydrolyzed conjugate can be monitored, the intensities of the peaks determined, and the percentage of hydrolyzed conjugate calculated at each timepoint. By plotting the hydrolysis percentage versus time, a curve is generated (e.g., using PRISM) which can be fit to a standard equation for exponential phenomena which includes a parameter for t1/2. […]

Turning to diaminopropionyl maleimide, the “time for hydrolysis reaction approaching 100% completion” value is “about 2 hours”.
